# Reference: patent publication US20260262643A1, “HERBICIDAL BENZOXAZINES” (FMC CORPORATION, priority 2022, published 2026)
# Tests used:
# barnyardgrass [1] = assay: Test D flooded paddy test; format: in vivo, Echinochloa crus-galli; settings: 250 g ai/ha, applied to paddy water, visual rating after 13 to 14 days, scale 0 to 100 (0 no effect, 100 complete control)
# Procedure: (§1) Plant species in the flooded paddy test selected from barnyardgrass (Echinochloa crus-galli), ducksalad (Heteranthera limosa), rice (Oryza sativa), and sedge, umbrella (small-flower umbrella sedge, Cyperus difformis) were grown to the 2-leaf stage for testing. At time of treatment, test pots were flooded to 3 cm above the soil surface, treated by application of test compounds directly to the paddy water, and then maintained at that water depth for the duration of the test. Treated plants and controls were maintained in a greenhouse for 13 to 14 days, after which time all species were compared to controls and visually evaluated. Plant response ratings, summarized in Table D, are based on a scale of 0 to 100 where 0 is no effect and 100 is complete control. A dash (-) response means no test result.
# ryegrass, Italian [2] = assay: Test C preemergence; format: in vivo, Lolium multiflorum; settings: 0 to 100 scale (0 no effect, 100 complete control)
# How it was run: (§2)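 Pre: seeds in loam/sand, directed soil spray. Post: 1–2 leaf plants, 2–10 cm. Cmpd in non-phytotoxic solvent + surfactant. Greenhouse 10 d; visual rating vs untreated, 0 = none, 100 = complete control.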
# corn [3] = assay: Test C preemergence; format: in vivo, Zea mays; settings: 0 to 100 scale (0 no effect, 100 complete control)
# How it was run: as §2
# green foxtail = assay: Test C preemergence; format: in vivo, Setaria viridis; settings: 0 to 100 scale (0 no effect, 100 complete control)
# How it was run: as §2
# ragweed [4] = assay: Test C preemergence; format: in vivo, Ambrosia artemisiifolia; settings: 0 to 100 scale (0 no effect, 100 complete control)
# How it was run: as §2
# soybean [5] = assay: Test C preemergence; format: in vivo, Glycine max; settings: 0 to 100 scale (0 no effect, 100 complete control)
# How it was run: as §2
# blackgrass [6] = assay: Test C postemergence; format: in vivo, Alopecurus myosuroides; settings: 10 days
# How it was run: as §2
# oat, wild [7] = assay: Test C postemergence; format: in vivo, Avena fatua; settings: 10 days
# How it was run: as §2
# ryegrass, Italian [8] = assay: Test C postemergence; format: in vivo, Lolium multiflorum; settings: 10 days
# How it was run: as §2
# ducksalad = assay: Test D flooded paddy test; format: in vivo, Heteranthera limosa; settings: 250 g ai/ha, applied to paddy water, visual rating after 13 to 14 days, scale 0 to 100 (0 no effect, 100 complete control)
# Procedure: as §1
# ragweed [9] = assay: Test C postemergence; format: in vivo, Ambrosia artemisiifolia; settings: 10 days
# How it was run: as §2
# horseweed = assay: Test C postemergence; format: in vivo, Erigeron canadensis; settings: 10 days
# How it was run: as §2
# wheat [10] = assay: Test C postemergence; format: in vivo, Triticum aestivum; settings: 10 days
# How it was run: as §2
# barnyardgrass [11] = assay: Test C postemergence; format: in vivo, Echinochloa crusgalli; settings: 10 days
# How it was run: as §2
# pigweed, palmer [12] = assay: Test C postemergence; format: in vivo, Amaranthus palmeri; settings: 10 days
# How it was run: as §2
# galium = assay: Test C postemergence; format: in vivo, Galium aparine; settings: 10 days
# How it was run: as §2
# barnyardgrass [13] = assay: Test C preemergence; format: in vivo, Echinochloa crusgalli; settings: 0 to 100 scale (0 no effect, 100 complete control)
# How it was run: as §2
# kochia [14] = assay: Test C preemergence; format: in vivo, Bassia scoparia; settings: 0 to 100 scale (0 no effect, 100 complete control)
# How it was run: as §2
# rice = assay: Test D flooded paddy test; format: in vivo, Oryza sativa; settings: 250 g ai/ha, applied to paddy water, visual rating after 13 to 14 days, scale 0 to 100 (0 no effect, 100 complete control)
# Procedure: as §1
# wheat [15] = assay: Test C preemergence; format: in vivo, Triticum aestivum; settings: 0 to 100 scale (0 no effect, 100 complete control)
# How it was run: as §2
# pigweed, palmer [16] = assay: Test C preemergence; format: in vivo, Amaranthus palmeri; settings: 0 to 100 scale (0 no effect, 100 complete control)
# How it was run: as §2
# kochia [17] = assay: Test C postemergence; format: in vivo, Bassia scoparia; settings: 10 days
# How it was run: as §2
# blackgrass [18] = assay: Test C preemergence; format: in vivo, Alopecurus myosuroides; settings: 0 to 100 scale (0 no effect, 100 complete control)
# How it was run: as §2
# oat, wild [19] = assay: Test C preemergence; format: in vivo, Avena fatua; settings: 0 to 100 scale (0 no effect, 100 complete control)
# How it was run: as §2
# corn [20] = assay: Test C postemergence; format: in vivo, Zea mays; settings: 10 days
# How it was run: as §2
# soybean [21] = assay: Test C postemergence; format: in vivo, Glycine max; settings: 10 days
# How it was run: as §2
# sedge, umbrella = assay: Test D flooded paddy test; format: in vivo, Cyperus difformis; settings: 250 g ai/ha, applied to paddy water, visual rating after 13 to 14 days, scale 0 to 100 (0 no effect, 100 complete control)
# Procedure: as §1
# [22] = Preemergence, 500 g ai/ha, visual rating after 10 days
# [23] = Test C, preemergence, 125 g ai/ha
# [24] = 125 g ai/ha, postemergence, 0 to 100 scale, 0 no effect, 100 complete control
# [25] = Postemergence, 500 g ai/ha, visual 0 to 100 scale (0 no effect, 100 complete control)
compound,measurement,setting,value
COC[C@H]1CN(C(=O)c2cc(-n3cncn3)ccc2OC)c2cccc(Cl)c2O1 [Compound 234],"Plant response rating, Barnyardgrass (Flood)",barnyardgrass [1],75
same,"Plant response rating, Ryegrass, Italian","ryegrass, Italian [2]; [22]",90
same,"Ryegrass, Italian plant response rating","ryegrass, Italian [2]; [23]",80
same,"Plant response rating, Corn",corn [3]; [22],10
same,Corn plant response rating,corn [3]; [23],10
same,"Plant response rating, Foxtail, Green",green foxtail; [22],100
same,"Foxtail, Green plant response rating",green foxtail; [23],100
same,"Plant response rating, Ragweed",ragweed [4]; [22],50
same,Ragweed plant response rating,ragweed [4]; [23],50
same,"Plant response rating, Soybean",soybean [5]; [22],100
same,Soybean plant response rating,soybean [5]; [23],90
same,"Plant response rating, Blackgrass",blackgrass [6]; [24],80
same,"Plant response rating, Blackgrass",blackgrass [6]; [25],90
same,"Plant response rating, Oat, Wild","oat, wild [7]; [24]",50
same,"Plant response rating, Oat, Wild","oat, wild [7]; [25]",80
same,"Plant response rating, Ryegrass, Italian","ryegrass, Italian [8]; [24]",90
same,"Plant response rating, Ryegrass, Italian","ryegrass, Italian [8]; [25]",90
same,"Plant response rating, Ducksalad (Flood)",ducksalad,100
same,"Plant response rating, Ragweed",ragweed [9]; [24],50
same,"Plant response rating, Ragweed",ragweed [9]; [25],70
same,"Plant response rating, Horseweed",horseweed; [24],20
same,"Plant response rating, Horseweed",horseweed; [25],20
same,"Plant response rating, Wheat",wheat [10]; [24],50
same,"Plant response rating, Wheat",wheat [10]; [25],80
same,"Plant response rating, Barnyardgrass",barnyardgrass [11]; [24],60
same,"Plant response rating, Barnyardgrass",barnyardgrass [11]; [25],100
same,"Plant response rating, Pigweed, Palmer","pigweed, palmer [12]; [24]",30
same,"Plant response rating, Pigweed, Palmer","pigweed, palmer [12]; [25]",70
same,"Plant response rating, Galium",galium; [24],100
same,"Plant response rating, Galium",galium; [25],100
same,"Plant response rating, Barnyardgrass",barnyardgrass [13]; [22],100
same,Barnyardgrass plant response rating,barnyardgrass [13]; [23],90
same,"Plant response rating, Kochia",kochia [14]; [22],60
same,Kochia plant response rating,kochia [14]; [23],30
same,"Plant response rating, Rice (Flood)",rice,0
same,"Plant response rating, Wheat",wheat [15]; [22],80
same,Wheat plant response rating,wheat [15]; [23],40
same,"Plant response rating, Pigweed, Palmer","pigweed, palmer [16]; [22]",90
same,"Pigweed, Palmer plant response rating","pigweed, palmer [16]; [23]",60
same,"Plant response rating, Kochia",kochia [17]; [24],60
same,"Plant response rating, Kochia",kochia [17]; [25],80
same,"Plant response rating, Blackgrass",blackgrass [18]; [22],80
same,Blackgrass plant response rating,blackgrass [18]; [23],70
same,"Plant response rating, Oat, Wild","oat, wild [19]; [22]",70
same,"Oat, Wild plant response rating","oat, wild [19]; [23]",50
same,"Plant response rating, Corn",corn [20]; [24],70
same,"Plant response rating, Corn",corn [20]; [25],90
same,"Plant response rating, Soybean",soybean [21]; [24],100
same,"Plant response rating, Soybean",soybean [21]; [25],100
same,"Plant response rating, Sedge, Umbrella (Flood)","sedge, umbrella",100
COC(=O)N(C)c1ncn(-c2cccc(C(=O)N3C[C@H](C)Oc4c(C)cccc43)c2)n1 [Compound 300],"Plant response rating, Barnyardgrass (Flood)",barnyardgrass [1],0
same,"Plant response rating, Ducksalad (Flood)",ducksalad,0
same,"Plant response rating, Rice (Flood)",rice,0
same,"Plant response rating, Sedge, Umbrella (Flood)","sedge, umbrella",0
